Earlier results as cited in patent US20220096371A1, “BIODEGRADABLE MICRONEEDLE SYSTEM WITH SUSTAINED RELEASE” (University of Connecticut, priority 2020, published 2022).

[1] = 81 mg ASA oral pill, by HPLC, used as target for MN system

CC(=O)Oc1ccccc1C(=O)O [ASA, acetylsalicylic acid]
ACU (area under the curve) [1]: ~865 ng/ml.hr
average daily plasma concentration [1]: ~100 ng/mL
bioavailability (oral use): ~20%
